# Reference: US12054487B2, “Muscarinic acetylcholine M1 receptor antagonists” (Contineum Therapeutics, Inc., priority 2018, dated 2024)
# Legend:
# Type in all cases: cell-based
# human M1 receptor = molecular target: T1, human M1 receptor (Homo sapiens, UniProt P11229); assay: In vitro functional assay of muscarinic acetylcholine receptor activity (aequorin calcium flux, antagonist mode vs EC80 acetylcholine), M1; conditions: CHO-K1 cells stably expressing human M1 receptor with Aequorin; decrease in EC80 acetylcholine response
# T1 construct: host or cells: CHO-K1
# T1 sequence (P11229 1-460): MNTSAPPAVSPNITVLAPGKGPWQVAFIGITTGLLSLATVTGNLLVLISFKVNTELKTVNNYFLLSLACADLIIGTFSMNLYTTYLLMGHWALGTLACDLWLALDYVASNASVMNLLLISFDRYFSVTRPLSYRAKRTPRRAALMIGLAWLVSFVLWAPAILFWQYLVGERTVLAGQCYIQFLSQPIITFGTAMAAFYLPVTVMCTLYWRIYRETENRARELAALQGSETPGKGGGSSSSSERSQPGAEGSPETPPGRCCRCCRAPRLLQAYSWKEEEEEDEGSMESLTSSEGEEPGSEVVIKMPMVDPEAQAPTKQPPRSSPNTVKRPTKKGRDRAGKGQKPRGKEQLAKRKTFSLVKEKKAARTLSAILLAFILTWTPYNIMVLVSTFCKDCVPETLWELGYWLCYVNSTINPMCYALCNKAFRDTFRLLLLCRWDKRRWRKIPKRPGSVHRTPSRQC
# Outline: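 CHO-K1 cells stably co-expressing human M1 and aequorin were loaded with 5 uM coelenterazine h for 4 h at room temperature in the dark. IC50 came from the drop in luminescence.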
# M2 = molecular target: T2, M2 (Homo sapiens, UniProt P08172); assay: In vitro functional assay of muscarinic acetylcholine receptor activity, M2; conditions: antagonist activity; M2 method not separately described
# T2 sequence (P08172 1-466): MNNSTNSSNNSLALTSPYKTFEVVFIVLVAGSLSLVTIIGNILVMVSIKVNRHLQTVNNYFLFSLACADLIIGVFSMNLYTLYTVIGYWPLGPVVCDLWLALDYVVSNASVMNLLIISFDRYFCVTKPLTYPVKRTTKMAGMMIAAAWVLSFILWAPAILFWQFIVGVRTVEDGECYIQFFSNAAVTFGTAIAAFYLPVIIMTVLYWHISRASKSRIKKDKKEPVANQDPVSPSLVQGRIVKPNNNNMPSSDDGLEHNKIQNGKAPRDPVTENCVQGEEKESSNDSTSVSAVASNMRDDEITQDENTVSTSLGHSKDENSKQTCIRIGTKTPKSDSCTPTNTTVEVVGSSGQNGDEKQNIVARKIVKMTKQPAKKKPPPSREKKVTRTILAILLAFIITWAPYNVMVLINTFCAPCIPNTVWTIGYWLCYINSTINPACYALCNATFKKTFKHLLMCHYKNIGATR
# M3 = M3 (Homo sapiens, UniProt P20309); assay: In vitro functional assay of muscarinic acetylcholine receptor activity, M3; conditions: antagonist activity; M3 method not separately described
# M3, sequence (P20309 whole entry): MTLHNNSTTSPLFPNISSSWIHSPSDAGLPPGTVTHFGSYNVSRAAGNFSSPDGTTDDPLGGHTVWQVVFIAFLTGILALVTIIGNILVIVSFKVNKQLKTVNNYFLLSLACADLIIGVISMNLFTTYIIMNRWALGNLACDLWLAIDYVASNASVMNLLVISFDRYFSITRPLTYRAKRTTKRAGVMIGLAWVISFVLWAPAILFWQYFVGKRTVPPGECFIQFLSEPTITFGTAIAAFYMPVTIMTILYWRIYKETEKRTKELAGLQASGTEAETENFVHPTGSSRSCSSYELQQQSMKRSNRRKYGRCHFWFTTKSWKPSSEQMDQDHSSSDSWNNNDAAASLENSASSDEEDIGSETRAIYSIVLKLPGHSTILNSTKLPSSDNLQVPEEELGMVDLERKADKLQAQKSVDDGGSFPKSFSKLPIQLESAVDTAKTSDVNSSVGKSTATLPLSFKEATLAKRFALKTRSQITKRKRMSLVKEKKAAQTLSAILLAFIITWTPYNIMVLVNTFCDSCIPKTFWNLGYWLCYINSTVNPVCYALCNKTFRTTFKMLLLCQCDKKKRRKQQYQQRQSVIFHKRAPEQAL
SMILES,IC50 (human M1 receptor) [nM],IC50 (M2) [nM],IC50 (M3) [nM]
"N#Cc1ccc(N2CCN3C(=O)[C@@H](CCCc4cccn5ncnc45)C[C@H]3C2)nc1 [Example 68, 6-((7S,8aS)-7-(3-([1,2,4]triazolo[1,5-a]pyridin-8-yl)propyl)-6-oxohexahydropyrrolo[1,2-a]pyrazin-2(1H)-yl)nicotinonitrile]",< 100,100 to 1000,< 100
"O=C1[C@@H](CCCc2cccn3ncnc23)C[C@H]2CN(c3ccc(F)cc3F)CCN12 [Example 71, (7S,8aS)-7-(3-([1,2,4]triazolo[1,5-a]pyridin-8-yl)propyl)-2-(2,4-difluorophenyl)hexahydropyrrolo[1,2-a]pyrazin-6(2H)-one]",1000 to 10000,1000 to 10000,> 10000
"O=C1[C@@H](CCCc2c(F)ccn3ncnc23)C[C@H]2CN(c3ccc(F)cn3)CCN12 [Example 78, (7S,8aS)-7-(3-{7-fluoro-[1,2,4]triazolo[1,5-a]pyridin-8-yl}propyl)-2-(5-fluoropyridin-2-yl)-octahydropyrrolo[1,2-a]pyrazin-6-one]",< 100,1000 to 10000,1000 to 10000
"O=C1[C@@H](CCCc2cccn3nccc23)C[C@H]2CN(c3ccc(F)cn3)CCN12 [Example 87, (7S,8aS)-2-(5-fluoropyridin-2-yl)-7-(3-(pyrazolo[1,5-a]pyridin-4-yl)propyl)hexahydropyrrolo[1,2-a]pyrazin-6(2H)-one]",100 to 1000,1000 to 10000,1000 to 10000
"O=C1[C@@H](CCCc2cccn3nccc23)C[C@H]2CN(c3ncc(F)cn3)CCN12 [Example 88, (7S,8aS)-2-(5-fluoropyrimidin-2-yl)-7-(3-(pyrazolo[1,5-a]pyridin-4-yl)propyl)hexahydropyrrolo[1,2-a]pyrazin-6(2H)-one]",< 100,1000 to 10000,1000 to 10000
"O=C1C(CCCc2c(F)ccc3nccn23)C[C@H]2CN(c3ccc(F)cn3)CCN12 (stereo partly drawn) [Example 89, (8aS)-7-(3-(6-fluoroimidazo[1,2-a]pyridin-5-yl)propyl)-2-(5-fluoropyridin-2-yl)hexahydropyrrolo[1,2-a]pyrazin-6(2H)-one]",< 100,1000 to 10000,1000 to 10000
"O=C1[C@@H](CCCc2cccc3nccnc23)C[C@H]2CN(c3ccc(F)cn3)CCN12 [Example 93, (7S,8aS)-2-(5-fluoropyridin-2-yl)-7-(3-(quinoxalin-5-yl)propyl)hexahydropyrrolo[1,2-a]pyrazin-6(2H)-one]",< 100,> 10000,1000 to 10000
